Assay results published in patent US10077436B2, “Beta-glucosidase enzymes for increased biomass saccharification” (Edeniq, Inc., priority 2013, dated 2018).

Tested on: A-BG (Accellerase® BG from DuPont), commercial beta-glucosidase
Assay: BG kinetics, cellobiose hydrolysis assay (HPLC) with glucose as competitive inhibitor, A-BG
Type: biochemical
Excerpt: The kinetic properties of beta glucosidase are important for cellulosic hydrolysis, since in commercial situations a wide range of substrate concentrations and different product inhibition conditions will be encountered. In this example, a Michaelis-Menten kinetics model was used to describe BG kinetics.
BG activity assay using cellobiose is the other standard assay to measure BG or cellobiase activity, which utilizes hydrolysis of cellobiose by cellobiase into two molecules of glucose, the last step of enzymatic hydrolysis of cellulose. One cellobiase unit (commonly termed as CBU) is defined as the amount of enzyme that converts […] of cellobiose or produces 2 μmol of glucose per min. Briefly, to determine BG activity, 25 μL of diluted enzyme in 50 mM citrate buffer (pH 4.8) equilibrated to 50° C. was mixed with 25 μL cellobiose (or cellobiose/glucose mixture for the kinetic study) to start the reaction. The mixture was incubated at 50° C. for 10 min, and the reaction was terminated by incubating the mixture at 99° C. for 5 min. Different methods are available to measure the glucose produced in the assays. For the kinetic study, HPLC was used.
To determine kinetic properties using cellobiose substrate, duplicate assays with cellobiose concentrations ranging from 0.47 to 15 mM and glucose concentrations of 0, 0.9, 4.5, 6.75, and 8.1 (for A-BG) or 9 (for all the other three BGs) g/L were performed. As for pNPG substrate, the range of cellobiose substrate concentration was chosen to show detectable activity at the lowest substrate concentration and saturation stage at high substrate concentration. […] Moreover, theoretically there are two ways to measure BG activity by HPLC when cellobiose is used as the substrate: tracking consumption of cellobiose or tracking production of glucose. […] In Table 3, A % is defined as follows and is an indicator of measurement sensitivity, since the difference of substrate or product concentrations before and after reaction was used to determine BG activity. Δ%=(start conc. of cellobiose−end conc. of cellobiose)/start conc. of cellobiose×100% (3) Δ%=(end conc. of glucose−start conc. of glucose)/start conc. of glucose×100% (4)
A similar simultaneous nonlinear regression method based on the competitive inhibition equation expressed in Equation (1) was used to determine kinetic parameters of BG towards cellobiose.
The specific activity used here was determined by the initial velocity approach that is required by implementing Michaelis-Menten model (Copeland, 2000). The specific activity was determined by measuring consumption of cellobiose in the first 10 min of reaction and was expressed as μmol min^−1 mg^−1, where mg^−1 means per mg of total protein. The relative activity was determined based on the maximum activity obtained in the absence of initial glucose inhibition.
The above experimental data were fit in the competitive inhibition model as expressed in Equation (1) by simultaneous nonlinear regression.

OC[C@H]1OC(O)[C@H](O)[C@@H](O)[C@@H]1O (stereo partly drawn) [glucose]
loss of activity towards cellobiose under glucose inhibition (9 g/L (0.9% w/v) initial glucose, cellobiose substrate): completely lost its activity
Ki (cellobiose substrate, competitive inhibition, pH 4.8, 50° C.): 5.2 ± 0.63 mM
Km/Ki (inhibitor influence, Km for cellobiose / Ki for glucose, pH 4.8, 50° C.): 1.26
